Experiment [1] has as its system T1, mushroom tyrosinase.
T1 construct: gene PPO3
The experiment can be described thus: dopachrome formation at […] nm, diphenolase activity, Lineweaver-Burk. The experiment is classed as biochemical. Conditions: no α-arbutin, 6.67 µg/mL enzyme, 50 mM phosphate pH 6.8, 30°C, air-saturated; apparent Km.

In experiment [2] the target is T1, mushroom tyrosinase. The experiment can be described thus: dopachrome formation at […] nm, monophenolase activity. The experiment is classed as biochemical. Conditions: 0.5 mM L-tyrosine, 20 µg/mL enzyme, 50 mM phosphate pH 6.8, 30°C, air-saturated, proposed suicide substrate.

pIC50: −log10 of the molar value.

For the compound `N[C@@H](Cc1ccc(O)c(O)c1)C(=O)O` [L-Dopa], the Km with mushroom tyrosinase [1] was 3.92 mM.
In turn, `OC[C@H]1O[C@H](Oc2ccc(O)cc2)[C@H](O)[C@@H](O)[C@@H]1O` [α-arbutin] gave a pIC50 against mushroom tyrosinase [2] of 2.35.

The record behind these values is article PMC4193772, “Dual Effects of Alpha-Arbutin on Monophenolase and Diphenolase Activities of Mushroom Tyrosinase” (PLoS ONE, 2014).
